EP1222921B1, “Pharmaceutical compositions of tizoxanide and/or nitazoxanide” (Romark Laboratories, L.C., priority 1997, dated 1998)
Converted amounts (≈) assume the structure as drawn. Where two headings read alike, the source gives them in different places.

How the values were obtained:
[1] = test system: Cryptosporidium parvum; type: in vivo
Description: An open-label study of nitazoxanide for AIDS-related cryptosporidial diarrhea documented decreased bowel movements among persons taking 500, 1000, 1500, or 2000 mg of the drug daily. […] Almost all participants had failed therapy with azithromycin or paromomycin.
By the end of the study, 8 of 11 had completely eradicated the parasite and the other three had substantial reductions in oocyst levels. There was a trend toward better response with doses of 1000 mg daily or higher and with longer therapy. Two trial participants had urticarial skin rashes; more than 90 percent adhered to the study regimen for more than four weeks.

[2] = test system: Cryptosporidium parvum; assay: Preliminary clinical trial in AIDS patients with chronic cryptosporidial diarrhea; type: in vivo; conditions: of 16 evaluable by the eighth week, oral 500 to 2000 mg daily
Description: In a preliminary clinical trial, 30 AIDS patients with chronic cryptosporidial diarrhea were treated with oral nitazoxanide from 500 to 2000 mg daily. […] Twenty-eight people completed two or more weeks of therapy and 16 of those were evaluable for a therapeutic response by the eighth week of treatment. […] Six patients met both clinical and parasitological response criteria for benefit. Patients who received higher daily doses of drug for longer periods of time were more likely to have a positive response.

[3] = test system: M. intracellular ATCC 13950; assay: MIC by standard agar dilution; type: cell-based, Mycobacterium intracellular; conditions: Mycobacterium, ATCC13950, 504 h, Middlebrook 7H11 agar, 3 weeks
[4] = test system: MDBKF5D2 cell monolayers; assay: Toxicity testing assay (Example III), MTS/PMS; type: cell-based; conditions: cattle, 48 h
Description: 200µl of medium containing nitazoxanide solution at the pre-mentioned concentrations and the proper controls were introduced into two wells of a 96 well plate containing confluent MDBKFD2 cell monolayers and two wells without monolayers. […] The plate was returned to the incubator in the dark to develop for 2 hours. At 2 hours, 100 µl of each supernatant was transferred to a new microtiter plate and read in the ELISA reader at 490 nm. Results were recorded and analyzed. […] (OD medium - OD drug x 100)/(OD medium) [formula] […]

[5] = test system: Fasciola hepatica; assay: In vitro culture of mature flukes
Description: The in vitro efficacy of nitazoxanide and desacetyl-nitazoxanide was tested against Fasciola hepatica. Mature F. hepatica were recovered from the bile ducts of 3 calf livers condemned due to fasciolosis at the Louisiana Veterinary Medical Diagnostic Laboratory at the Hardy's Meat […], Bunkie, LA. Flukes were washed in sterile saline for 1 hour and transferred to sterile saline or RPMI (pH 7.4) for an additional 3 hours. Flukes were then held in sterile RPMI-rabbit serum (50:50 v/v) or sterile RPMI (pH 7.4) overnight at 37°C with 5% CO2. In vitro culture (37°C, 5% CO2) was done according to a modification of the method of Ibarra and Jenkins ([…]. 70:655-661, 1984). […] Only flukes that had normal activity and morphology were used. […] Two control flukes were included in each replicate, […] and one in unmedicated culture media […]. Flukes were examined for the effects of drug treatment as evidenced by death, motility disturbances or morpholgic changes as compared to untreated control flukes, using a backlighted panel and a lighted 3X magnifying lens.

[6] = test system: MDBKF5D2 cell monolayers; type: cell-based; conditions: cattle
Description: The drug was incubated on the monolayers at 37°C and 8% CO2. At 24 hours (trial 1) and 48 hours (trial 2), MTS (Owen's solution) the PMS were added to each well at concentrations of 333 µg/ml and 25 µM respectively. The plate was returned to the incubator in the dark to develop for two hours. At two hours, 100 µl of each supernatant was transferred to a new microtiter plate and read in the ELISA reader at 490nm. Results were recorded and analyzed. Percent toxicity was calculated by subtracting the mean optical density (OD) of the drug supernatants from the mean optical density (OD) of the medium control supernatants (no drug), dividing by the OD of the medium control and multiplying by 100. (OD medium - OD drug)/(OD medium)x 100 [formula]

[7] = test system: MRC5 fibroblasts; conditions: human, 72 h
[8] = after 23 weeks, 500, 1000, 1500, or 2000 mg daily

## CC(=O)Oc1ccccc1C(=O)Nc1ncc([N+](=O)[O-])s1 [Nitazoxanide, 2-(acetolyloxy)-N-(5-nitro 2-thiazoly) benzamide]
[1]; [8]
  complete clinical response (one to three predominantly formed bowel movements daily): 9 of 13
  partial clinical response: 4 of 13
[1]; by the end of the study
  completely eradicated the parasite: 8 of 11
[1]; by the end of the study, remaining of 11
  substantial reductions in oocyst levels: three
[2]
  individuals with a marked reduction or eradication of the parasite in the stool: 10
  patients who met both clinical and parasitological response criteria: Six
  people with the organism becoming undetectable: four
  persons with a 50 percent or greater reduction in daily bowel movement frequency: 12
[3]
  MIC: 2 µg/mL (≈ 6.51 µM)
[4]; 0.01 µg/ml
  %Tox - Percent toxicity to cells by the drug: 10.12%
  Tox/OD: 1.617
[4]; 0.1 µg/ml
  %Tox - Percent toxicity to cells by the drug: ≤0%
  Tox/OD: 1.878
[4]; 1 µg/ml
  %Tox - Percent toxicity to cells by the drug: 10.09%
  Tox/OD: 1.618
[4]; 10 µg/ml
  %Tox - Percent toxicity to cells by the drug: 77.07%
  Tox/OD: .413
[5]; 1 µg treatment
  effects on flukes (death, motility disturbances): one fluke died by hour 16, three by hour 41 and five by hour 74; 3 flukes remained active at hour 91 and one fluke had activity at hour 115
[5]; 3 µg treatment
  effects on flukes (death, motility disturbances): By 23 hours, only 2 sluggish flukes in the 3 µg group remained alive; these were dead by hour 41
[5]; 5 µg treatment
  effects on flukes (death, motility disturbances): only 3 flukes were active at hour 6 and none were active at 16 hours
[5]; 10 µg treatment
  effects on flukes (death, motility disturbances): only one fluke survived to 16 hours
[5]; 25 µg treatment
  effects on flukes (death, motility disturbances): all flukes were dead or moribund except one fluke at 1 hour in the 25 µg group it was dead at 3 hour
[5]; 50 µg treatment
  effects on flukes (death, motility disturbances): all flukes were dead or moribund
[5]; 100 µg treatment
  effects on flukes (death, motility disturbances): all flukes were dead or moribund
[6]; 24 h, 0.1 µg/ml
  Percent Toxicity: 19.3%
[6]; 24 h, 1 µg/ml
  Percent Toxicity: 8.3%
[6]; 24 h, 10 µg/ml
  Percent Toxicity: 65.1%
[6]; 24 h, 100 µg/ml
  Percent Toxicity: 88.1%
[6]; 48 h, 0.02 µg/ml
  Percent Toxicity: 21.23%
[6]; 48 h, 0.2 µg/ml
  Percent Toxicity: 16.56%
[6]; 48 h, 2 µg/ml
  Percent Toxicity: 24.93%
[6]; 48 h, 20 µg/ml
  Percent Toxicity: 92.87%
[7]
  concentrations with marked toxicity on the cell monolayer: ≥ 2500 ng/mL
